One block for each compound: values may come before it.
How the values were obtained:
[1] = Oral absorption test: capsule formulations given orally to fed beagles, concentration in plasma; assay type: in vivo; details: beagle, 50 mg/kg
Protocol: The compound of the present invention (2 g), DK ester SS (Daiichi Kogyo Seiyaku) and lactose (2.9 g) were weighed and the mixture was mixed slightly in a mortar and the mixture was filtered through 60 mesh strainer twice to give pharmaceutical powder. The pharmaceutical powder was filled in No.0 gelatin capsule 250 mg/cap each. By this method, capsule formulations containing type-A and type-C crystal were prepared respectively.
A beagle was fed with solid food (240 g) and after 30 minutes above prepared capsules were administered in a stomach using sonde for oral administration and tap water (20 ml) was administered with sonde for oral administration.
After administration, 15 minutes, 30 minutes, 1 hour, 2 hours and 3 hours taken a blood of 1 ml from cephalic vein using heparin dealt syringe. The taken sample was disposed under 12000 rpm for 2 minutes and plasma was separated and the concentration of the compound in plasma (μg/ml) was measured.
The dose given to the beagle was 50 mg/kg and 4 beagles for type-A crystal and 3 beagles for type-C crystal.

[2] = Stability test: preservation of crystal powder, DSC caloric transition (ΔH) and X-ray diffraction; assay type: physicochemical
Protocol: Weighing out over approximately 50 mg of type-A crystal powder, it was preserved under the condition of
1) 40° C., 75% RH (relative humidity), unsealed for a month,
2) 40° C., sealed tightly for 6 months.
The type-A crystal preserved under above conditions and another type-A crystal which was preserved at 5° C. were subjected to measurement of differential scanning calorimetry (DSC) and caloric transition (ΔH) per 1 g was calculated from endothermic peak chart (see FIGS. 14-16)
ΔH=peak area/sample weight

[3] = system: matrix metalloproteinase; details: as disclosed in WO 99/19296; cited from earlier work

Cmax (maximum drug concentration), average value ([1]; plasma): 2000 ng/mL
AUC (area under the blood concentration-time curve), average value ([1]; plasma, sampling up to 3 hours): 3500 ng·h/mL
SMILES: CCOCOC[C@H](C[C@H](C)C(=O)NO)NC(=O)c1ccc(Oc2ccccc2)cc1 [Type-C crystal, N-hydroxy-2(S)-methyl-5-ethoxymethoxy-4(S)-[N-(4-phenoxyphenylcarbonyl)amino]pentanamide, reference compound]

ΔH (calorie variation of endothermic peak, absolute value) ([2]; 1 month, 40° C.-75% RH, unsealed): 14.80 J/g
ΔH (calorie variation of endothermic peak, absolute value) ([2]; 6 months, 40° C., sealed tightly): 13.41 J/g
crystal stability (crystal transition on preservation) ([2]; 40° C.-75% RH a month and 40° C. 6 months, DSC and X-ray diffraction): stable crystal
ΔH (calorie variation of endothermic peak, absolute value) ([2]; initial (type-A crystal preserved at 5° C.)): 13.40 J/g
AUC ([1]; dog, plasma, po, AUC (area under the blood concentration-time curve), average value, sampling up to 3 hours): 5100 ng·h/mL
Cmax ([1]; dog, plasma, po, plasma, read-out: Cmax (maximum drug concentration), average value): 3600 ng/mL
SMILES: CCOCOC[C@H](C[C@H](C)C(=O)NO)NC(=O)c1ccc(Oc2ccccc2)cc1 [Type-A crystal, N-hydroxy-2(S)-methyl-5-ethoxymethoxy-4(S)-[N-(4-phenoxyphenylcarbonyl)amino]pentanamide]
concentration in plasma, comparison of crystals [1]: higher concentration in plasma than type-C crystal

SMILES: CCOCOC[C@H](C[C@H](C)C(=O)NO)NC(=O)c1ccc(Oc2ccccc2)cc1 [compound (I), N-hydroxy-2(S)-methyl-5-ethoxymethoxy-4(S)-[N-(4-phenoxyphenylcarbonyl)amino]pentanamide]
inhibitory activity against matrix metalloproteinase (MMP) [3]: has an inhibitory activity against matrix metalloproteinase

Reference: patent US20040152785A1, “Novel crystal of n-hydroxy-2 (s)-methyl-5-ethoxymethoxy-4(s)-[n-(4-phenoxyphenylcarbonyl)amino] pentanamide, process for their production and medicines containing the crystals as the active ingredient” (priority 2000, published 2004)
